{"source": "patent US20220339257A1", "about": "“METHODS TO INCREASE THE SENSITIVITY AND REVERSING THE RESISTANCE TO DRUGS” (Biomarker Strategies, LLC, priority 2019, published 2022)", "molecules": {"B1": {"name": "interferon-alpha-1 (protein, UniProt P01562 24-189, looked up)", "Interferon alpha-1/13": "CDLPETHSLDNRRTLMLLAQMSRISPSSCLMDRHDFGFPQEEFDGNQFQKAPAISVLHELIQQIFNLFTTKDSSAAWDEDLLDKFCTELYQQLNDLEACVMQEERVGETPLMNADSILAVKKYFRRITLYLTEKKYSPCAWEVVRAEIMRSLSLSTNLQERLRRKE", "notes": "enhancer molecule, cytokine purchased from Sigma"}}, "test_in_all_cases": "WST-8 cell viability assay", "type_in_all_cases": "cell-based", "key": {"A498": {"tested_on": "A498", "conditions": "in combination with cetuximab, 72 hours", "experimental": "(§1) Day 1: cells were harvested cells from flask (4 mL accutase for T175 for 3-5 minutes), and spin down for 5 mins at 1200 rpm. The supernatant was poured off, and the pellet gently resuspended in 1 mL media. Countess counts were performed, and the cells were diluted in media (10% FBS). With multi-channel pipette, 2500 cells were seeded in 100 uL of media (10% FBS) in each well of 96 well plate. The cells were let to adhere and grow for 24 hours. Day 2: serial drug dilutions of MTAs+/−EMs at 5× of concentrations (as done above) were performed in media (10% FBS). 20 uL of media form each well of the 96 well plate (80 uL media left in wells) was removed, and 20 uL of appropriate 5× drug dilutions was added to each respective well (for a 1× conc). The cells were incubated with drug for 72 hours in 37C incubator. Day 5: 10 uL of WST-8 reagent was added to each well of the 96 well plate and mixed gently. the plates were incubated up to 4 hours at 37C in dark, and absorbance readings were taken at […] and 600 nm wavelengths at 1, 2, 3 and 4h, until control absorbance levels were 1.5-2.0).\n(§2) WST-8 Assay: MTA and EM effects on cell viability were measured by Cell Counting Kit8 (WST-8) colorimetric assay using water-soluble tetrazolium salt WST-8 reagent (Vita Scientific Cat. #DBOC00128). For the assay, cells were seeded in 96-well plates at 2,500 cells per well, in 100 μL of 10% FBS-containing media. After 24 hours, a 1 nM to 10 μM range of MTA and/or 1 ng/mL to 1 mg/mL range of EM doses was added and incubated for 72 hours. After treatment, a 10% volume of WST-8 reagent was added to each well and cells were incubated at 37° C. for up to 4 hours. Solution absorbance was measured at wavelengths of 450 nm and 600 nm at 1-, 2-, 3-, and 4-hour's incubation. Percentage viability of drug-treated cells was calculated relative to untreated control cells. Results were confirmed by three independent experiments.\n(§3) For studying the effects of various molecularly targeted agents (MTAs) and enhancer molecules (EMs) alone as well as in combination: HCC827, PC-9, A427, Calu-6, H2228, H358, H1299, H460, H292, H1838, H2170, and H226 (non-small cell lung cancer; NSCLC); and SK-MES-1 […], CAL27, OE21, KYSE-70, A-253, BICR-16, PE/CA-PJ15 and Ca9-22 (head and neck squamous cell carcinoma; HNSCC); SK-MEL-2, SK-MEL-28, RPMI-7951 and A7 (melanoma); HTB-38 and HCT116 (colorectal cancer; CRC); BxPC-3 and HPAF-II (pancreatic cancer); HEPG2 (hepatocellular carcinoma; HCC); A498 (renal cell carcinoma; RCC) cells were used. Other cell lines, including those from other cancer types, or cells collected from more complex sample types such as xenografts and clinical samples can be used. Ultimately, these combinations can be utilized in various clinical and pre-clinical samples and studies. Using the WST-8 cell viability assay, a MTA+EM-induced anti-cancer/anti-growth activity in multiple cell lines was discovered (FIGS. 8-15). Other viability assays, for example, MTT, HoPI staining, dye exclusion (e.g. trypan blue), can be used readily. […] The cut-off value for classifying a “strong anti-cancer/anti-growth enhancement” was a response resulting in >70% reduction in cell survival compared to untreated control cells (100%), while showing greater reduction compared to both MTA and EM alone."}, "BICR-16": {"tested_on": "BICR-16", "conditions": "in combination with IFN-γ, 72 hours", "experimental": "as §1, §2, §3"}, "Calu-6": {"tested_on": "Calu-6", "conditions": "in combination with IFN-γ, 72 hours", "experimental": "as §1, §2, §3"}, "HTB-38": {"tested_on": "HTB-38", "conditions": "in combination with IFN-γ, 72 hours", "experimental": "as §1, §2, §3"}, "OE21": {"tested_on": "OE21", "conditions": "in combination with GSK-458, 72 hours", "experimental": "as §1, §2, §3"}, "PC-9": {"tested_on": "PC-9", "conditions": "in combination with trametinib; PC-9 (EGFR E746_A750del); 72 hours", "experimental": "as §1, §2, §3"}, "RPMI-7951": {"tested_on": "RPMI-7951", "experimental": "as §1, §2, §3"}, "erlotinib-resistant PC-9": {"tested_on": "erlotinib-resistant PC-9", "experimental": "as §1, §2, §3"}, "Ca9-22": {"tested_on": "Ca9-22", "experimental": "as §1, §2, §3"}, "[1]": {"conditions": "in combination with GSK-458, 72 hours"}, "[2]": {"conditions": "in combination with trametinib, 72 hours"}}}
{"molecule": "tumor necrosis factor-alpha [EM2]", "values": [{"measurement": "anti-cancer/growth enhancement (WST-8 cell viability)", "setting": "A498", "value": "moderate-to-strong anti-cancer/growth enhancement"}, {"measurement": "anti-cancer/growth enhancement (WST-8 cell viability)", "setting": "BICR-16", "value": "moderate-to-strong anti-cancer/growth enhancement"}, {"measurement": "anti-cancer/growth enhancement (WST-8 cell viability)", "setting": "Calu-6", "value": "moderate-to-strong anti-cancer/growth enhancement"}, {"measurement": "anti-cancer/growth enhancement (WST-8 cell viability)", "setting": "HTB-38", "value": "moderate-to-strong anti-cancer/growth enhancement"}, {"measurement": "anti-cancer/growth enhancement (WST-8 cell viability)", "setting": "OE21", "value": "moderate-to-strong anti-cancer/growth enhancement"}, {"measurement": "anti-cancer/growth enhancement (WST-8 cell viability)", "setting": "PC-9", "value": "moderate-to-strong anti-cancer/growth enhancement"}, {"measurement": "anti-cancer/growth enhancement (WST-8 cell viability)", "setting": "RPMI-7951; [1]", "value": "moderate-to-strong anti-cancer/growth enhancement"}, {"measurement": "anti-cancer/growth enhancement (WST-8 cell viability)", "setting": "RPMI-7951; in combination with dabrafenib, 72 hours", "value": "moderate-to-strong anti-cancer/growth enhancement"}, {"measurement": "anti-cancer/growth enhancement (WST-8 cell viability)", "setting": "erlotinib-resistant PC-9; [1]", "value": "moderate-to-strong anti-cancer/growth enhancement"}, {"measurement": "anti-cancer/growth enhancement (WST-8 cell viability)", "setting": "erlotinib-resistant PC-9; [2]", "value": "moderate-to-strong anti-cancer/growth enhancement"}]}
{"molecule": "B1", "values": [{"measurement": "anti-cancer/growth enhancement (WST-8 cell viability)", "setting": "Ca9-22; [1]", "value": "anti-cancer/growth enhancement"}, {"measurement": "anti-cancer/growth enhancement (WST-8 cell viability)", "setting": "Ca9-22; in combination with GSK-795, 72 hours", "value": "anti-cancer/growth enhancement"}, {"measurement": "anti-cancer/growth enhancement (WST-8 cell viability)", "setting": "Ca9-22; in combination with everolimus, 72 hours", "value": "anti-cancer/growth enhancement"}, {"measurement": "anti-cancer/growth enhancement (WST-8 cell viability)", "setting": "Ca9-22; in combination with metformin, 72 hours", "value": "anti-cancer/growth enhancement"}, {"measurement": "anti-cancer/growth enhancement (WST-8 cell viability)", "setting": "Ca9-22; in combination with osimertinib, 72 hours", "value": "anti-cancer/growth enhancement"}, {"measurement": "anti-cancer/growth enhancement (WST-8 cell viability)", "setting": "Ca9-22; [2]", "value": "anti-cancer/growth enhancement"}]}
